Columns and labels:
Type in all cases: in vivo, human
[1] = Euglycaemic hyperinsulinaemic clamp with intravenous L-carnitine infusion: serum insulin and whole body glucose disposal; conditions: for whole body glucose disposal: mean±SEM
Protocol: (§1) Seven healthy, non-vegetarian young men (age 22.4±1.5 yr, body mass 84.3±5.0 kg, body mass index […]) participated in the study. Each subject reported to the laboratory at 8 am on two occasions, separated by a 2-week “wash out” period, and voided their bladder. All subjects had abstained from carnitine containing foods, alcohol, and strenuous exercise for the previous 24 hours. On arrival, subjects were asked to rest in a supine position on a bed while a cannula was inserted retrogradely in to a superficial vein on the dorsal surface of the non-dominant hand. This hand was kept in a hand-warming unit (air temperature 50-55° C.) to arterialize the venous drainage of the hand, and a saline drip was attached to keep the cannula patent. A second cannula was placed in an antecubital vein in the non-dominant forearm for the infusion of insulin and glucose, and a third cannula was inserted into an antecubital vein in the opposite arm for infusion of L-carnitine.
(§2) On each experimental visit, a 6 hour (h) euglycaemic hyperinsulinaemic insulin (human Actrapid, Novo Nordisk, Denmark) clamp was performed, whilst maintaining a fasting blood glucose concentration of 4.47±0.01 mmol·l^−1. The insulin clamp began at t=0 at a rate of 105 mlU·m^−2·min^−1 with the aim of achieving steady state hyperinsulinaemic (˜150 mlU·l^−1) serum insulin concentration throughout each visit. […]
(§3) During each experimental visit, 1 ml of arterialized venous (a-v) blood was obtained every 5 min for monitoring blood glucose concentration (YSI 2300 STATplus, Yellow Springs Instruments, Ohio). […] These samples were then stored at −80° C. and analyzed at a later date for free fatty acid (FFA) concentration, using an enzymatic-colorimetric assay kit (NEFA C kit, WAKO Chemicals, Germany), and total carnitine (TC) concentration, using the radioenzymatic assay described previously by Cederblad et al (1982). […] Insulin was measured in these samples at a later date with a radioammunoassy kit (Coat-a-Count Insulin, DPC, Ca, USA). […]

[2] = Plasma free fatty acid (FFA) concentration during L-carnitine infusion with insulin clamp; conditions: not significantly different from CON
Protocol: Seven healthy, non-vegetarian young men (age 22.4±1.5 yr, body mass 84.3±5.0 kg, body mass index […]) participated in the study. Each subject reported to the laboratory at 8 am on two occasions, separated by a 2-week “wash out” period, and voided their bladder. All subjects had abstained from carnitine containing foods, alcohol, and strenuous exercise for the previous 24 hours. On arrival, subjects were asked to rest in a supine position on a bed while a cannula was inserted retrogradely in to a superficial vein on the dorsal surface of the non-dominant hand. This hand was kept in a hand-warming unit (air temperature 50-55° C.) to arterialize the venous drainage of the hand, and a saline drip was attached to keep the cannula patent. […]
as §3

[3] = Skeletal muscle carnitine content (vastus lateralis biopsy, radioenzymatic)
Protocol: as §1
(§4) On each experimental visit, a 6 hour (h) euglycaemic hyperinsulinaemic insulin (human Actrapid, Novo Nordisk, Denmark) clamp was performed, whilst maintaining a fasting blood glucose concentration of 4.47±0.01 mmol·l^−1. The insulin clamp began at t=0 at a rate of 105 mlU·m^−2·min^−1 with the aim of achieving steady state hyperinsulinaemic (˜150 mlU·l^−1) serum insulin concentration throughout each visit. Following a 1 hour equilibration period, a 5 hour intravenous infusion of 60 mM L-carnitine (CARN) (Lonza Ltd, Basel, Switzerland) or the equivalent volume of saline (CON) began, in randomised manner, in conjunction with the insulin clamp. At the onset of L-carnitine infusion a bolus dose of 15 mg·kg^−1 was administered over 10 minutes (min) in order to rapidly reach a supraphysiological plasma concentration of ˜500 μmol·l^−1. This was followed by a constant infusion at 10 mg·kg^−1·h^−1 for the next […] to maintain hypercarnitinaemia. At t=6 h, the insulin and L-carnitine infusions were stopped, whereas the glucose infusion was continued for approximately 80 min in order to stabilise blood glucose concentration. During this time, on each visit, subjects were fed the same standardised, carnitine-free meal.
(§5) Muscle biopsy samples were obtained from the vastus lateralis muscle immediately before and after each insulin clamp, and the following morning, using the percutaneous needle biopsy technique, and were snap frozen in liquid nitrogen less than 5 seconds after removal from the limb. One portion of the sample was subsequently freeze-dried and stored at −80° C., and the remainder was stored “wet” in liquid nitrogen. After removal of visible blood and connective tissue, the freeze-dried muscle samples were powdered, and free carnitine (FC), acetylcarnitine (AC), long-chain acylcarnitine (LCAC), and long-chain acyl-CoA (LCACoA) contents were determined radioenzymatically using a modified version of the radioenzymatic method of Cederblad et al (1990). Values were subsequently summed in order to calculate muscle TC. To reduce the variance in non-muscle constituents, muscle carnitine content was adjusted for the highest total creatine content from each pair of samples. Total creatine was calculated as the sum of free creatine and phosphocreatine content determined spectrophotometrically using the method of Harris et al (1974). Muscle glycogen, glucose-6-phosphate (G-6-P), and lactate content was also determined using a modified version of the spectrophotometric method of Harris et al (1974).
(§6) A two-way ANOVA (time and treatment effects; GraphPad Prism 4.02, GraphPad Software Inc, CA) was performed to locate differences in serum insulin, plasma carnitine, plasma FFA, and blood glucose concentrations as well as muscle PDC activity and carnitine, long-chain acyl-CoA, glycogen, lactate, and glucose-6-phosphate content. When a significant main effect was detected, data were further analysed with Student's paired t tests using the Bonferroni correction. […]

[4] = system: pyruvate dehydrogenase complex (PDC); experiment: Muscle pyruvate dehydrogenase complex (PDC) activity in biopsy samples; conditions: for post infusion PDC activity less than CON: CARN vs CON, P<0.05; for muscle PDC activity: post infusion/clamp
Protocol: as §1, §2
Muscle biopsy samples were obtained from the vastus lateralis muscle immediately before and after each insulin clamp, and the following morning, using the percutaneous needle biopsy technique, and were snap frozen in liquid nitrogen less than 5 seconds after removal from the limb. […] After removal of visible blood and connective tissue, the freeze-dried muscle samples were powdered, and free carnitine (FC), acetylcarnitine (AC), long-chain acylcarnitine (LCAC), and long-chain acyl-CoA (LCACoA) contents were determined radioenzymatically using a modified version of the radioenzymatic method of Cederblad et al (1990). […] Total creatine was calculated as the sum of free creatine and phosphocreatine content determined spectrophotometrically using the method of Harris et al (1974). Muscle glycogen, glucose-6-phosphate (G-6-P), and lactate content was also determined using a modified version of the spectrophotometric method of Harris et al (1974).
The remainder of the frozen muscle was used to determine PDC activity as previously described (Constantin-Teodosiu et al, 1991). Briefly, the activity of PDC in its dephosphorylated active form (PDCa) was assayed in a buffer containing NaF and dichloroacetate (DCA) and was expressed as rate of acetyl-CoA formation (mmol·min^1·(kg wet muscle)^−1 or nmol·min^1·(mg protein)^−1) at 37° C. Protein concentrations were determined using the method of Peterson (1977). […]

[5] = Muscle metabolites (glycogen, lactate, glucose-6-phosphate, long-chain acyl-CoA) in biopsy samples; conditions: for muscle LCACoA content greater than CON: following morning (24 h), CARN vs CON, P<0.05
Protocol: as §1, §4, §5, §6

Structure (SMILES): C[N+](C)(C)C[C@H](O)CC(=O)[O-] [L-carnitine]
- whole body glucose disposal ([1]; 80 min recovery period following the clamp): 37.2 ± 3.5 g
- whole body glucose disposal ([1]; over the 6 h clamp, n=7): 316.8 ± 15.0 g
- total amount of glucose infused ([1]; whole visit (CON approximately 330 g)): ~350 g
- plasma FFA concentration ([2]; by 24 h): 0.19 ± 0.02 mmol/L
- plasma FFA concentration ([2]; maintained during the insulin clamp, basal 0.30±0.04): 0.046 ± 0.01 mmol/L
- skeletal muscle total carnitine (TC) content ([3]; 24 h (following morning), not significantly different from pre infusion value): 25.1±2.2 mmol·(kg dm)^−1
- muscle free carnitine (FC) overnight ([3]; 24 h after CARN infusion visit): retuning to basal
- skeletal muscle total carnitine (TC) content ([3]; after 5 h L-carnitine infusion during hyperinsulinaemia, pre infusion 22.5±2.0, P<0.01): 26.6±1.6 mmol·(kg dm)^−1
- change in muscle acetyl carnitine (AC) ([3]; during the CARN infusion visit): no change
- increase in muscle free carnitine (FC) ([3]; during the CARN infusion visit, P<0.05): 17%
- skeletal muscle long chain acyl carnitine ([3]; following infusion visit): unchanged
- increase in skeletal muscle TC ([3]; post vs pre 5 h L-carnitine infusion during hyperinsulinaemia): 15%
- post infusion PDC activity less than CON [4]: 30%
- post infusion PDC activity less than CON ([4]; listed as CARN): 31%
- muscle PDC activity ([4]; pre 0.43±0.07, P<0.01): 0.74±0.06 mmol·min^−1·(kg wm)^−1
- muscle PDC activity ([4]; pre 4.2±1.6): 4.1±0.9 nmol·min^−1·(mg protein)^−1
- muscle glycogen content ([5]; 24 h after commencement of the insulin infusion, P<0.001 vs pre, P<0.01 vs CON): 736±24 mmol·(kg dm)^−1
- difference in whole body muscle glycogen content between CON and CARN visits ([5]; assuming skeletal muscle contributes to 40% of total body mass): 250 g
- skeletal muscle glucose-6-phosphate content ([5]; during each visit): No significant differences
- increase in muscle glycogen content compared with CON ([5]; following an overnight fast (24 h)): 30%
- muscle LCACoA content ([5]; following morning (24 h) in the CARN visit): returned to basal
- muscle LCACoA content greater than CON [5]: 40%
- muscle LCACoA content greater than CON ([5]; listed as CARN): 39%
- skeletal muscle lactate content ([5]; following the CARN infusion visit (CON increased 56%)): unchanged
- decrease in muscle lactate content ([5]; post infusion, 6 hour clamp): 40%
- muscle glycogen content ([5]; post infusion, resting 487±23, P<0.01): 651±37 mmol·(kg dm)^−1
